By Ki is commonly meant a dissociation constant, usually derived from enzyme kinetics or from competition with a known ligand.

From ChEMBL document CHEMBL1275378, “Exploration of the active site of neuronal nitric oxide synthase by the design and synthesis of pyrrolidinomethyl 2-aminopyridine derivatives” (J Med Chem, 2010) come the findings set out here.

Assay [1] can be described thus: Selectivity ratio of IC50 for rat recombinant nNOS to IC50 for mouse recombinant iNOS.
The nature of assay [2]: Selectivity ratio of IC50 for rat recombinant nNOS to IC50 for bovine recombinant eNOS.
A further assay addresses T1, Nitric oxide synthase 3 (Bos taurus, UniProt P29473).
T1 sequence (P29473 whole entry): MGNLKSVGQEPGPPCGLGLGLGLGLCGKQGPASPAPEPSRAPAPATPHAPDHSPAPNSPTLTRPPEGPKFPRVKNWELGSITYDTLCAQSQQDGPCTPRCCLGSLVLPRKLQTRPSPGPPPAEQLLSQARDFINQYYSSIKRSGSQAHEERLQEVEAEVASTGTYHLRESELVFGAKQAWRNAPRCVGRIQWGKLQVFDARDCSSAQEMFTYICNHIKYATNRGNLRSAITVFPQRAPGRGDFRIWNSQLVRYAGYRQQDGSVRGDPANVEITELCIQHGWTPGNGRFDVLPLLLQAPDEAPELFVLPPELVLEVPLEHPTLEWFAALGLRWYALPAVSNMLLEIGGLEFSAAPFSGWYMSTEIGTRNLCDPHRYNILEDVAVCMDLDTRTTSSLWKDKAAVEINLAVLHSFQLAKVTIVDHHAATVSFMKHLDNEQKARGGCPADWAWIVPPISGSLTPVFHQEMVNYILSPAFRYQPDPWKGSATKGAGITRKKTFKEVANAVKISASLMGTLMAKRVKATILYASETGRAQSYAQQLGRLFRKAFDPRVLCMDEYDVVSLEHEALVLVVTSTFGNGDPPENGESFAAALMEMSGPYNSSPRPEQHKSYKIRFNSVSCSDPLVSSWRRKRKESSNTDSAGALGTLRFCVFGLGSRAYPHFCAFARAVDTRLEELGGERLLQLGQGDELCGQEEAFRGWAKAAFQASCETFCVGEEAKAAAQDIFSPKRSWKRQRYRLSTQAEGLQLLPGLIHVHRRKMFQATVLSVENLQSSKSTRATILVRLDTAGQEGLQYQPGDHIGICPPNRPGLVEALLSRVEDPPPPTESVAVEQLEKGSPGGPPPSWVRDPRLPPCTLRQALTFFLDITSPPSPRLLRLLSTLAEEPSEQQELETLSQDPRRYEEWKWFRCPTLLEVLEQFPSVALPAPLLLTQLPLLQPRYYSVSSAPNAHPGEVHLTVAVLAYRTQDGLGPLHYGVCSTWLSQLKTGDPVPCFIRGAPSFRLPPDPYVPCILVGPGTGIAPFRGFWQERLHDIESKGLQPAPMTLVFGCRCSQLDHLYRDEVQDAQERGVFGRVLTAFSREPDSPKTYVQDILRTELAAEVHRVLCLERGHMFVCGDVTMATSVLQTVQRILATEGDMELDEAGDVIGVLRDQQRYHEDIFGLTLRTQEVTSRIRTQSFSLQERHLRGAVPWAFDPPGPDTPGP
Description: Inhibition of bovine recombinant eNOS.

`Cc1cc(N)nc(C[C@H]2CNC[C@@H]2NCCCO)c1` (racemic): in assay [1], the Ratio was 8.

For the molecule `NCCN1C[C@H](Cc2cccc(N)n2)[C@H](NCCCc2ccccc2)C1` (racemic), the Ratio in assay [1] was 13. Moreover, the nNOS selectivity over eNOS (eNOS IC50 / nNOS IC50) in assay [2] is 2.5. Further, the Ki on Nitric oxide synthase 3 was determined as 122 µM.

For `NCCN1C[C@H](Cc2cccc(N)n2)[C@@H](NCCCc2ccccc2)C1` (racemic), the Ratio in assay [1] amounted to 110. Besides, the nNOS selectivity over eNOS (eNOS IC50 / nNOS IC50) in assay [2] was 43. Besides, the inhibitory constant (Ki) at Nitric oxide synthase 3 amounted to 173 µM.

Consider `NCCN1C[C@H](Cc2cccc(N)n2)[C@H](NCCCO)C1` (racemic), for which the Ki on Nitric oxide synthase 3 turned out to be 849 µM.

With `NCCN1C[C@H](Cc2cccc(N)n2)[C@@H](NCCCO)C1` (racemic), the Ki at Nitric oxide synthase 3 turned out to be 1700 µM.

Turning to `CN(C)CCN[C@H]1CNC[C@@H]1Cc1cccc(N)n1` (racemic), the Ratio in assay [1] stood at 20. Further, the nNOS selectivity over eNOS (eNOS IC50 / nNOS IC50) in assay [2] came to 15. The Ki on Nitric oxide synthase 3 was found to be 242 µM.

Take `Nc1cccc(C[C@H]2CNC[C@@H]2NCCNCc2ccccc2)n1` (racemic): the Ratio in assay [1] was found to be 11.5. The nNOS selectivity over eNOS (eNOS IC50 / nNOS IC50) in assay [2] stood at 201. For the same molecule, the Ki at Nitric oxide synthase 3 came out at 2910 µM.

As for `Nc1cccc(C[C@H]2CNC[C@@H]2NC[C@H](N)Cc2ccccc2)n1` (racemic), the Ratio in assay [1] amounted to 21.5. The nNOS selectivity over eNOS (eNOS IC50 / nNOS IC50) in assay [2] was 105. For the same molecule, the Ki on Nitric oxide synthase 3 was 1450 µM.

Take `Nc1cccc(C[C@H]2CNC[C@@H]2NC[C@@H](N)Cc2ccccc2)n1` (racemic): the Ratio in assay [1] is 20. The nNOS selectivity over eNOS (eNOS IC50 / nNOS IC50) in assay [2] came out at 71. In addition, the Ki on Nitric oxide synthase 3 came out at 1450 µM.

Regarding `Nc1cccc(C[C@H]2CNC[C@@H]2N[C@H]2CCNC2)n1` (racemic), the Ratio in assay [1] turned out to be 18. Besides, the nNOS selectivity over eNOS (eNOS IC50 / nNOS IC50) in assay [2] worked out at 49. For the same molecule, at Nitric oxide synthase 3, the Ki was 625 µM.

With `Nc1cccc(C[C@H]2CNC[C@@H]2N[C@@H]2CCNC2)n1` (racemic), the Ratio in assay [1] is 12. In addition, the nNOS selectivity over eNOS (eNOS IC50 / nNOS IC50) in assay [2] came out at 22. Moreover, the Ki on Nitric oxide synthase 3 came out at 460 µM.

On to `Nc1cccc(C[C@H]2CNC[C@@H]2N[C@H]2CCN(Cc3ccccc3)C2)n1` (racemic), for which the Ratio in assay [1] is 12. Further, the nNOS selectivity over eNOS (eNOS IC50 / nNOS IC50) in assay [2] worked out at 6. The Ki at Nitric oxide synthase 3 stood at 109 µM.

As for `Nc1cccc(C[C@H]2CNC[C@@H]2N[C@@H]2CCN(Cc3ccccc3)C2)n1` (racemic), the Ratio in assay [1] was 12. Moreover, the nNOS selectivity over eNOS (eNOS IC50 / nNOS IC50) in assay [2] turned out to be 7. Also, at Nitric oxide synthase 3, the inhibitory constant (Ki) amounted to 171 µM.

For `Cc1cc(N)nc(C[C@H]2CNC[C@@H]2NCCNCc2ccc(C(F)(F)F)cc2)c1` (racemic), the Ki at Nitric oxide synthase 3 was determined as 61.2 µM.

On to `Cc1cc(N)nc(C[C@H]2CNC[C@@H]2NCCNCc2ccc(F)cc2)c1` (racemic), for which the Ratio in assay [1] was 31. Also, the nNOS selectivity over eNOS (eNOS IC50 / nNOS IC50) in assay [2] worked out at 90.5. Further, the Ki at Nitric oxide synthase 3 was 78.8 µM.

With `Cc1cc(N)nc(C[C@H]2CNC[C@@H]2NCCNCc2cccc(C(F)(F)F)c2)c1` (racemic), the Ratio in assay [1] was 79. Besides, in assay [2], the nNOS selectivity over eNOS (eNOS IC50 / nNOS IC50) is 147. The Ki on Nitric oxide synthase 3 was determined as 109 µM.

With `Cc1cccc(CNCCN[C@H]2CNC[C@@H]2Cc2cc(C)cc(N)n2)c1` (racemic), in assay [1], the Ratio amounted to 127. Besides, the nNOS selectivity over eNOS (eNOS IC50 / nNOS IC50) in assay [2] was determined as 306. The Ki at Nitric oxide synthase 3 came out at 202 µM.

As for `Cc1cc(N)nc(C[C@H]2CNC[C@@H]2NCCNCc2ccc(Cl)c(Cl)c2)c1` (racemic), the Ratio in assay [1] is 57. Further, in assay [2], the nNOS selectivity over eNOS (eNOS IC50 / nNOS IC50) stood at 153. In addition, the Ki at Nitric oxide synthase 3 turned out to be 63.2 µM.

`Cc1cc(N)nc(C[C@H]2CNC[C@@H]2NCCNCc2ccc(Cl)cc2Cl)c1` (racemic): in assay [1], the Ratio is 92. In addition, the nNOS selectivity over eNOS (eNOS IC50 / nNOS IC50) in assay [2] was 158. Also, at Nitric oxide synthase 3, the Ki was 76.1 µM.

Turning to `Cc1cc(N)nc(C[C@H]2CNC[C@@H]2NC[C@H](C)NCc2ccc(Cl)cc2)c1` (racemic), the Ratio in assay [1] was determined as 35. For the same molecule, the nNOS selectivity over eNOS (eNOS IC50 / nNOS IC50) in assay [2] came out at 28. The Ki on Nitric oxide synthase 3 is 16.5 µM.

Take `Cc1cc(N)nc(C[C@H]2CNC[C@H]2N(C)CCNCc2ccc(Cl)cc2)c1` (racemic): at Nitric oxide synthase 3, the Ki was found to be 58.1 µM.

Turning to `Cc1cc(N)nc(C[C@H]2CNC[C@@H]2NCCNCCc2ccc(F)cc2)c1` (racemic), in assay [1], the Ratio was 190. For the same molecule, the nNOS selectivity over eNOS (eNOS IC50 / nNOS IC50) in assay [2] turned out to be 370. Moreover, the Ki on Nitric oxide synthase 3 turned out to be 44.1 µM.

`Cc1cc(N)nc(C[C@H]2CNC[C@@H]2NCCCc2ccccc2)c1` (racemic): in assay [1], the Ratio was found to be 11. Moreover, in assay [2], the nNOS selectivity over eNOS (eNOS IC50 / nNOS IC50) came to 6. In addition, at Nitric oxide synthase 3, the Ki amounted to 85.2 µM.

As to `Nc1cccc(C[C@H]2CNC[C@@H]2O)n1` (racemic), in assay [1], the Ratio was 4. Moreover, the nNOS selectivity over eNOS (eNOS IC50 / nNOS IC50) in assay [2] was 49. The Ki at Nitric oxide synthase 3 stood at 341 µM.

As for `Cc1cc(N)nc(C[C@H]2CNC[C@@H]2NCCN)c1` (racemic; form 1) [listing 1 of 2 here], the Ki on Nitric oxide synthase 3 worked out at 866 µM.

Regarding `Cc1cc(N)nc(C[C@H]2CNC[C@@H]2NCCN)c1` (racemic; form 1) [listing 2 of 2 here], in assay [1], the Ratio came out at 9.

Turning to `Cc1cc(N)nc(C[C@H]2CNC[C@@H]2NCCN)c1` (racemic; form 2) [listing 1 of 2 here], the Ki on Nitric oxide synthase 3 is 263 µM.

For the molecule `Cc1cc(N)nc(C[C@H]2CNC[C@@H]2NCCN)c1` (racemic; form 2) [listing 2 of 2 here], the Ratio in assay [1] came out at 52.5.
